Data from patent publication US10711036B2, “MALT1 inhibitors and uses thereof” (Cornell University, priority 2015, dated 2020).
Where a SMILES comes first, the peptide text is derived from it. [ ]: non-standard residue; d: D form. The star is where a group is joined. Pip = O=C(O)[C@@H]1CCCCN1; Cbz = O=C(OCc1ccccc1)*; CH2F = FC*

What was measured:
MALT1 [1] = target: T1, MALT1 (Homo sapiens (Human), UniProt Q9UDY8); assay: Inhibition constants (Ki) for inhibition of MALT1; type: biochemical; conditions: 100 nM MALT1 used for the assay
T1 sequence (Q9UDY8 whole entry): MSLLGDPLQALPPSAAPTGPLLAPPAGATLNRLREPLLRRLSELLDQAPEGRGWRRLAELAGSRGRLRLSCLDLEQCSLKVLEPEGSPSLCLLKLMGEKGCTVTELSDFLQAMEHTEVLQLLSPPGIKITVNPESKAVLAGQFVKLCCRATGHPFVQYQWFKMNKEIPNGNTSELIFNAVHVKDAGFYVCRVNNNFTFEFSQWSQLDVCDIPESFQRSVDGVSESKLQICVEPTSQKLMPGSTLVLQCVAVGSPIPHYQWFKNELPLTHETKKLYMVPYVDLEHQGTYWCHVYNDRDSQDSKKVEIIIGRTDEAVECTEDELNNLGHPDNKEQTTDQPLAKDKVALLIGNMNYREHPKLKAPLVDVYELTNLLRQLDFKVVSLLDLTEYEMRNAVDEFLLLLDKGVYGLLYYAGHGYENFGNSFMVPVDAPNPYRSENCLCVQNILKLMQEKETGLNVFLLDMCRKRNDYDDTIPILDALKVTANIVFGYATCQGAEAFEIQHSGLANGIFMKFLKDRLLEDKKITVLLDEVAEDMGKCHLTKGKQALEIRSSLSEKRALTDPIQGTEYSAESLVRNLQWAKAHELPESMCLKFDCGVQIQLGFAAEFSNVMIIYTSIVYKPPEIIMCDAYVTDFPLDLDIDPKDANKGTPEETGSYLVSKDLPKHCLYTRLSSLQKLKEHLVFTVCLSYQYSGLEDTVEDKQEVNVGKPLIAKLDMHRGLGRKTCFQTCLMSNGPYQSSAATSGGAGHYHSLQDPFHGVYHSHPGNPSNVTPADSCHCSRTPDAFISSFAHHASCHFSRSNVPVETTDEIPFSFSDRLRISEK
Experimental: For exemplary compounds of the disclosure, Ki for inhibition of MALT1 was measured (Table E11). A concentration of 100 nM MALT1 was used for the assay.

OCI-LY3 [2] = assay: Cell growth inhibition assay (CellTiter-Glo, 96 hours), OCI-LY3; type: cell-based, human; conditions: Homo sapiens, OCI-LY3 cells, treated at t=0 and t=48 hours, ATP luminescence
Experimental: DLBCL cell lines were grown in exponential growth conditions during the 96 hours of treatment. Cells were treated twice: at t=0 and t=48 hours, and cell viability was determined by ATP quantification using a luminescent method ([…]-GLO, Promega, Madison, Wis.). Cell viability in drug-treated cells was normalized to vehicle controls (fractional viability) and results are given as 1-fractional viability.
Experiments were Performed in Triplicate.

OCI-LY3 [3] = assay: Maximum killing effect on OCI-LY3; type: cell-based, human
Experimental: (§1) The maximum killing effects on cell-lines OCI-LY3, TMD8, and OCI-LY1 were also measured for select compounds at inhibitor concentration of 20 μM and 5 μM. TMD8 is another line of ABC type diffuse large-B cell lymphoma, while OCI-LY1 is a DLBCL line of the germinal center B-cell subtype.

TMD8 = assay: Maximum killing effect on TMD8; type: cell-based
Experimental: as §1

OCI-LY1 = assay: Maximum killing effect on OCI-LY1; type: cell-based
Experimental: as §1

MALT1 [4] = target: T1, MALT1; assay: X-ray co-crystal structure of compound and MALT1; type: binding; conditions: 2.0 angstrom resolution
Experimental: Compound 101 was incubated with MALT1 to form a complex, and the complex was purified and crystallized for structure determination. X-ray diffraction data was collected, and the compound 101-MALT1 structure was solved in 2.0 angstrom resolution. […] Exemplary evidence for the formation of the covalent bond is the existence of continuous electron density from compound 101 to the Cys464 residue of MALT1. The electron density is 2Fo−Fc map contoured at 1.0 sigma.

RelB cleavage = assay: Western blot for RelB cleavage in OCI-LY3 cells; type: cell-based, human; conditions: OCI-LY3 cells pretreated with inhibitor, then 5 μM MG-132 for 2 hours
Experimental: FIG. 1A. Western blots for RelB and MALT1 after 30 minutes pretreatment with indicated doses of compounds or vehicle, followed by proteasome inhibitor MG-132 (5 μM) treatment for 2 hours in OCI-LY3. clev=cleavage product of RelB.
FIG. 1B. Western blots for RelB with indicated doses of compounds or vehicle in OCI-LY3.
Western blot: OCI-Ly3 cells (a line of human diffuse large B-cell lymphoma (ABC type)) were pre-treated for 30 minutes with indicated doses of MALT1 inhibitors followed by a 2-hour treatment with proteasome inhibitor MG-132 at 5 μM. Protein was then extracted in a PBS-based lysis buffer containing 1% NP-40. Equal amounts of total protein (50 to 75 μg) were separated on sodium dodecyl sulfate-polyacrylamide gel electrophoresis (SDS-PAGE), and electrotransferred onto nitrocellulose membranes. Membranes were incubated with primary antibodies (MALT1, from Santa Cruz Biotechnologies, Santa Cruz, Calif.; RELB from Cell Signaling, Danvers, Mass., and α-Tubulin from Sigma), followed by secondary antibodies conjugated to horseradish peroxidase, which were detected by chemiluminescence (Pierce, Thermo Scientific, Rockford, Ill.).
OCI-LY3 cells were pretreated with the an inhibitor at the desired concentration and subsequently treated with 5 μM MG-132, a proteasome inhibitor, for 2 hours.

Ki (MALT1 [1]) [nM] | GI50 (OCI-LY3 [2]) [nM] | Covalent bond to Cys464 of MALT1 in co-crystal structure (MALT1 [4]) | SMILES | Maximum killing effect (OCI-LY3 [3]; OCI-LY3, 5 μM) [%] | Maximum killing effect (OCI-LY3 [3]; OCI-LY3, 20 μM) [%] | Maximum killing effect (TMD8; TMD8, 5 μM) [%] | Maximum killing effect (TMD8; TMD8, 20 μM) [%] | Maximum killing effect (OCI-LY1; OCI-LY1, 5 μM) [%] | Maximum killing effect (OCI-LY1; OCI-LY1, 20 μM) [%] | Inhibition of RelB cleavage (Western blot) (RelB cleavage)
40 | 8520 | formation of a covalent bond | CC(C)[C@H](NC(=O)OCc1ccccc1)C(=O)N1CCC[C@H]1C(=O)N[C@@H](CCCNC(=N)N)C(=O)CF [Compound 101, Benzyl ((S)-1-((S)-2-(((S)-1-fluoro-6-guanidino-2-oxohexan-3-yl)carbamoyl)pyrrolidin-1-yl)-3-methyl-1-oxobutan-2-yl)carbamate 2,2,2-trifluoroacetate] (Cbz-Val-Pro-Arg-CH2F) | 70 | 79 | 50 | 63 | <0 | 7 | 
40 | 730 |  | CC(C)[C@H](NC(=O)OCc1ccccc1)C(=O)N1CCCC[C@H]1C(=O)N[C@@H](CCCNC(=N)N)C(=O)CF [Compound 107] (Cbz-Val-[Pip]-Arg-CH2F) | 38 | 85 | 29 | 58 | 3 | 11 | inhibition of RelB cleavage
10 | 130 |  | CC(C)[C@H](NC(=O)c1ccc(Br)cc1)C(=O)N1CCC[C@H]1C(=O)N[C@@H](CCCNC(=N)N)C(=O)CF [Compound 116] |  | 90 |  | 76 |  | 19 | inhibition of RelB cleavage
